The results in this text go back to patent publication EP0606463B1, “NEUROMEDIN B RECEPTOR ANTAGONISTS” (The Administrators of The Tulane Educational Fund, priority 1992, dated 1994).

One may read the IC50 as the concentration that inhibits the measured activity by half.

Where two headings read alike, the source gives them in different places. Where only a bound is given, the exact number is not on record here.

In assay [1] the target is T1, NMB receptors on C-6 cells (Rattus norvegicus, UniProt P24053).
T1 construct: endogenous in cells; host or cells: rat glioblastoma C-6 cells
The assay is described as follows: Binding of 125I-[D-Tyr0]NMB to C-6 glioblastoma cells. The conditions noted are these: NMB Receptor, Ki by method of Cheng, read-out: Ki(nM) ^123I-NMB Binding. As to the method: Binding studies using rat glioblastoma C-6 or NMB-R transfected cells were performed as described previously [Benya, R. V. et al. Mol. Pharmacol. 42:1058 (1992); and Wang, L-H. et al. Biochem. J. 286:641 (1992)] by suspending disaggregated cells in binding buffer, which was composed of standing buffer ([…], 7.7 mM KCl, 1.0 mM EGTA, 0.02% soybean trypsin inhibitor) additionally containing 50 mM HEPES, 1 mM MgCl2, 1.5 mM CaCl2, 2.2 mM KH2PO4, 0.015% glutamine, and 0.2% BSA (w\v) (pH 7.4). Incubations contained 75 pM ^125I-[D-Tyr^0]NMB and 15 x 10^6 C-6 cells/ml or 2 x 10^6 NMB-R transfected cells/ml, for 60 min at 22°C. Nonsaturable binding of ^125I-[D-Tyr^0]NMB was te amount of radioactivity associated with C-6 cells or NMB-R transfected cells when the incubation mixture contained […]. Nonsaturable binding was < 15% of total binding in all experiments; all values are reported herein as saturable binding (i.e., total minus nonsaturable binding).

Assay [2] has as its target T2, rat NMB receptor (Rattus norvegicus, UniProt P24053).
T2 construct: a full length NMB-preferring bombesin receptor clone generated from rat esophagus; expressed in transfected cells; host or cells: BALB 3T3 cells
T2 sequence (P24053 1-390): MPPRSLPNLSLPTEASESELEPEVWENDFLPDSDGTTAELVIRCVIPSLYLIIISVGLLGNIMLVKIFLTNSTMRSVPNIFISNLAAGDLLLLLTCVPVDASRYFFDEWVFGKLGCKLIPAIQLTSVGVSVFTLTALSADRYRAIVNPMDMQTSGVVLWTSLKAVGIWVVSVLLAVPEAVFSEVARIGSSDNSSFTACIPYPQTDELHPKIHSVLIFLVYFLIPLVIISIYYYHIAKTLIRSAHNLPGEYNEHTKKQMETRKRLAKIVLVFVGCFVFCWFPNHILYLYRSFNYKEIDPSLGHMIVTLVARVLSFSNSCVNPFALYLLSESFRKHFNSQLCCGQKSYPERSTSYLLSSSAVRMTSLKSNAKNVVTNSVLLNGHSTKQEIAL
As to the kind of experiment: Binding of 125I-[D-Tyr0]NMB to NMB-R transfected BALB 3T3 cells.

The target in assay [3] is T3, NMB Receptor (Rattus norvegicus, UniProt P24053).
T3 construct: a full length NMB-preferring bombesin receptor clone generated from rat esophagus; expressed in transfected cells; host or cells: BALB 3T3 cells
T3 sequence (P24053 1-390): T2 sequence (P24053 1-390)
As to the kind of experiment: [3H]inositol phosphates (IP) in NMB-R transfected cells. The class given is cell-based. A digest of the protocol:
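BALB 3T3 cells stably expressing rat NMB receptor, labelled 48 h with myo-[2-3H]inositol, then 60 min at 37°C in LiCl-containing buffer with agonists, or with 3 nM NMB plus antagonists. Total [3H]IP isolated by anion-exchange chromatography.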

Assay [4] deals with T4, GRP Receptor (Rattus norvegicus, UniProt P52500).
T4 construct: from tissue; host or cells: dispersed pancreatic acini
T4 sequence (P52500 whole entry): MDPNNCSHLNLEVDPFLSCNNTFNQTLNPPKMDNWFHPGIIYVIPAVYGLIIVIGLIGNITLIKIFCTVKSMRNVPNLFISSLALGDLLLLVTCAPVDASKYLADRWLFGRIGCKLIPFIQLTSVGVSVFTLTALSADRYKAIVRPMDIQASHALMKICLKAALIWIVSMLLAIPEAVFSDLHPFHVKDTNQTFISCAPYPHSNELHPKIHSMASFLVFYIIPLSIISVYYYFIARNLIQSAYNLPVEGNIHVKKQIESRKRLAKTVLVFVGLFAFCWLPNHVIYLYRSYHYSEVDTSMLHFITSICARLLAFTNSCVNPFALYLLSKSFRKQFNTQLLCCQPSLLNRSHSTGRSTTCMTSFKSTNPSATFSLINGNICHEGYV
The assay is described as follows: Amylase release from rat pancreatic acini. The assay is classed as cell-based.

Assay [5] deals with T5, GRP receptors on rat pancreatic acini (Rattus norvegicus, UniProt P52500).
T5 construct: from tissue; host or cells: dispersed pancreatic acini
T5 sequence (P52500 whole entry): as above
As to the kind of experiment: Binding of 125I-[Tyr4]bombesin to pancreatic acini. The conditions noted are these: read-out: Ki (nM) ^123I[Tyr^4]BnBinding.
Source text: Nonsaturable binding was < 10% of total binding in all experiments.

Assay [6] deals with T6, somatostatin receptors on AR 42J cells (Rattus norvegicus, UniProt P30680).
T6 construct: endogenous in cells; host or cells: rat AR 42J pancreatic acinar cells (membranes)
T6 sequence (P30680 whole entry): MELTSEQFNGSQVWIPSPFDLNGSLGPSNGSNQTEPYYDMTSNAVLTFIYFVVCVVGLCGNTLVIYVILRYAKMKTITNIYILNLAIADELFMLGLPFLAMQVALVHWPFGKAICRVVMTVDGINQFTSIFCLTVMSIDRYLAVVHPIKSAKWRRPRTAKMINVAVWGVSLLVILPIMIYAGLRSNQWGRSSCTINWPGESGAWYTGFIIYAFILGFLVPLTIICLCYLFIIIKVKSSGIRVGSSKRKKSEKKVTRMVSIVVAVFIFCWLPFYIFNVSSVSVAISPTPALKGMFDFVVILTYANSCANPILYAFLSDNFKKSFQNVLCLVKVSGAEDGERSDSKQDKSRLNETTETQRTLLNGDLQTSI
The assay is described as follows: Somatostatin membrane receptor assay (AR 42J cell membranes). To be noted: AR 42J Cell Membranes; method of Cheng; unit inferred; read-out: affinity, ^125I-[Tyr^11]SS-14. The assay is classed as binding.

The target in assay [7] is T7, GRP receptors on AR 42J cell membranes (Rattus norvegicus, UniProt P52500).
T7 construct: endogenous in cells; host or cells: rat AR 42J pancreatic acinar cells (membranes)
T7 sequence (P52500 whole entry): as the sequence (P52500 whole entry) above
The assay is described as follows: GRP membrane receptor assay (AR 42J cell membranes). The class given is binding. The conditions noted are these: method of Cheng, unit inferred, read-out: affinity, ^125I-[Tyr^4]Bn.

Assay [8] deals with T8, NMB receptors on rat olfactory bulb membranes (Rattus norvegicus, UniProt P24053).
T8 construct: Membranes were prepared from rat olfactory bulb (NMB membrane receptor assay); from tissue; host or cells: rat olfactory bulb membranes
T8 sequence (P24053 1-390): T2 sequence (P24053 1-390)
The assay is described as follows: NMB membrane receptor assay (rat olfactory bulb membranes). The assay is classed as binding. To be noted: Rat Olfactory bulb membranes; method of Cheng; unit inferred; read-out: affinity, ^125I-NMB.

For assay [9], the target named is T9, mu opioid receptors (Rattus norvegicus, UniProt P33535).
T9 construct: rat forebrain (TRH, mu and delta opioid membrane assays); from tissue; host or cells: rat forebrain membranes
T9 sequence (P33535 whole entry): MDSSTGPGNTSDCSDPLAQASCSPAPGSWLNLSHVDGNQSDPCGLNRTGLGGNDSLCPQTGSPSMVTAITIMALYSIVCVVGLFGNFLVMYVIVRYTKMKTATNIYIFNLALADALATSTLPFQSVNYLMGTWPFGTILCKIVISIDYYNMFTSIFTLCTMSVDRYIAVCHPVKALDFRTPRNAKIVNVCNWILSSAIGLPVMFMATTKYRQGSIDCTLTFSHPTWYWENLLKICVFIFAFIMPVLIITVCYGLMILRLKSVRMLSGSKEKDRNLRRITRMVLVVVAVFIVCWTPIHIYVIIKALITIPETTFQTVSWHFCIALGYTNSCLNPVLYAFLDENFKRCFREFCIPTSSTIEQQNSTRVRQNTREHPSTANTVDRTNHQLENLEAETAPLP
As to the kind of experiment: mu opioid membrane assay ([3H]DAGO, rat forebrain membranes). The assay is classed as binding. To be noted: Rat Forebrain membranes; method of Cheng; unit inferred; read-out: affinity, [^3H]DAGO.

As for `CC(C)[C@@H]1NC(=O)[C@H](CCCCN)NC(=O)[C@@H](Cc2c[nH]c3ccccc23)NC(=O)[C@H](Cc2ccc(O)cc2)NC(=O)[C@@H](NC(=O)[C@H](N)Cc2ccc3ccccc3c2)CSSC[C@@H](C(=O)N[C@H](C(N)=O)[C@@H](C)O)NC1=O` [Analog #5, [Thr^8]-cyclo-SS-octa], the Ki in [1] is 3790 ± 1080 nM; in assay [2] (K1, NMB-R transfected cells, summary of Table 1), 14000 to 19000 nM; in [2] (NMB Receptor, Transfected Cells, Ki by method of Cheng, read-out: Ki (nM) ^123I-NMB Binding), 14800 ± 2650 nM; in [5], > 10000 nM; in assay [6], 0.00029 ± 3e-05 µM; in assay [7] it was 3.9 ± 1.2 µM. The Ki amounted to 0.8 ± 0.2 µM in assay [8] and 0.002 ± 0.0014 µM in assay [9]. Besides, the IC50 in [3] (NMB Receptor, Transfected Cells, read-out: IC50 (nM) NMB-stimulated [^3H]IP) was > 10000 nM; in [4] it was > 10000 nM. Besides, in [3] (NMB-R transfected cells, 3 nM NMB, peptide 10 µM), the “effect on NMB-stimulated increase in [^3H]IP” value is “no activity”.
